These results are taken from patent US20120196901A1, “TERTIARY AMIDE OREXIN RECEPTOR ANTAGONISTS” (Merck Sharp & Dohme Corp., priority 2009, published 2012).

This test addresses T1, OX2R (Homo sapiens, UniProt O43614).
T1 construct: expressed in transfected cells; host or cells: CHO cells (membranes)
T1 sequence (O43614 1-444): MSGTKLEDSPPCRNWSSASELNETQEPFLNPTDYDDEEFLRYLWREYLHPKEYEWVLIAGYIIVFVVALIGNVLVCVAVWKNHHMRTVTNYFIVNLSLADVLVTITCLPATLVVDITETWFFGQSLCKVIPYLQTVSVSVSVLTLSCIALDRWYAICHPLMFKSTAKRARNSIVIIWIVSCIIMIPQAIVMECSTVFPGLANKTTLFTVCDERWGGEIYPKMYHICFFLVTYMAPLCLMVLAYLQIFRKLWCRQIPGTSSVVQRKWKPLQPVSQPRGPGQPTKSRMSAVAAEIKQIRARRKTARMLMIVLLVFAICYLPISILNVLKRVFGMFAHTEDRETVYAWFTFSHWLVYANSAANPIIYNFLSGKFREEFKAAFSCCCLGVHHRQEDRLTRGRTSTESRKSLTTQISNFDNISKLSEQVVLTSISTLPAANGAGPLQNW
In words: radioligand binding assay, membranes prepared from CHO cells expressing the OX2 receptor. The procedure:
The utility of the compounds in accordance with the present invention as orexin receptor OX1R and/or OX2R antagonists may be readily determined without undue experimentation by methodology well known in the art, including the “FLIPR Ca^2+ Flux Assay” (Okumura et al., Biochem, Biophys. Res. Comm. 280:976-981, 2001). In a typical experiment the OX1 and OX2 receptor antagonistic activity of the compounds of the present invention was determined in accordance with the following experimental method. […] Within the Fluorescent Imaging Plate Reader (FLIPR, Molecular Devices), test compounds are added to the plate in a volume of 25 ul, incubated for 5 min and finally 25 ul of agonist is added. Fluorescence is measured for each well at 1 second intervals for 5 minutes and the height of each fluorescence peak is compared to the height of the fluorescence peak induced by 70 pM Ala-6,12 orexin-A with buffer in place of antagonist. For each antagonist, […] value (the concentration of compound needed to inhibit 50% of the agonist response) is determined. Alternatively, compound potency can be assessed by a radioligand binding assay (described in Bergman et. al. Bioorg. Med. Chem. Lett. 2008, 18, 1425-1430) in which the inhibition constant (ki) is determined in membranes prepared from CHO cells expressing either the OX1 or OX2 receptor. […]

With `COc1ccc(CCN(C(=O)c2cccc(C)n2)C(C)CCc2ccccc2)nc1OC` (centres unmarked) [Cmp 2-3, N-[2-(5,6-Dimethoxy-2-pyridinyl)ethyl]-6-methyl-N-(1-methyl-3-phenylpropyl)-2-pyridinecarboxamide], the affinity, expressed as Ki, was 0.27 nM. Compound `COc1cccc(C(=O)N(CCc2ccc(OC)c(OC)n2)C(C)CCc2ccccc2)n1` (centres unmarked) [Cmp 2-13, N-[2-(5,6-dimethoxypyridin-2-yl)ethyl]-6-methoxy-N-(4-phenylbutan-2-yl)pyridine-2-carboxamide] gave a Ki of 0.14 nM.

As usually defined, the Ki is the equilibrium dissociation constant of an inhibitor or competing ligand from its target.
